Measurements published in patent US20230017045A1, “PYRIDINE AND PYRIMIDINE CARBOXYLATE HERBICIDES AND METHODS OF USE THEREOF” (Dow AgroSciences LLC, priority 2017, published 2023).

tested on: test plant species; test: Post-emergent herbicidal activity test (greenhouse, foliar spray, visual growth reduction); assay type: in vivo; conditions: post-emergence, 336 h, ECHCG: barnyardgrass (Echinochloa crus-galli), 140 g ai/ha, 14 days after application, read-out: Visual Growth Reduction (%) 14 Days After Application, ECHCG
Outline: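 Greenhouse plants at first–second true leaf stage sprayed overhead at 187 L/ha with compound in acetone/water/isopropanol/DMSO/crop oil/X-77 carrier; controls received solvent blank. Injury rated visually after 14 d on a 0–100% scale versus untreated and control plants, converted to growth reduction.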

Structure (SMILES) | pest or weed control at 140 g/ha [%]
COC(=O)c1nc(-c2ccc(Cl)c(C)c2F)ccc1Cl [F272, Methyl 3-chloro-6-(4-chloro-2-fluoro-3-methylphenyl) picolinate] | 0 to 29
COC(=O)c1nc(-c2ccc(C(F)(F)F)cc2OC)c(F)cc1F [F377, Methyl 3,5-difluoro-6-(2-methoxy-4-(trifluoromethyl)phenyl)picolinate] | 60 to 74

same assay, conditions: post-emergence, 336 h, IPOHE: ivy-leaf morning glory (Ipomoea hederacea), 140 g ai/ha, 14 days after application, read-out: Visual Growth Reduction (%) 14 Days After Application, IPOHE

Structure (SMILES) | pest or weed control at 140 g/ha [%]
COC(=O)c1nc(-c2ccc(Cl)c(C)c2F)ccc1Cl [F272, Methyl 3-chloro-6-(4-chloro-2-fluoro-3-methylphenyl) picolinate] | 0 to 29
COC(=O)c1nc(-c2ccc(C(F)(F)F)cc2OC)c(F)cc1F [F377, Methyl 3,5-difluoro-6-(2-methoxy-4-(trifluoromethyl)phenyl)picolinate] | 95 to 100

same assay, conditions: post-emergence, 336 h, KCHSC: kochia (Bassia scoparia), 140 g ai/ha, 14 days after application, read-out: Visual Growth Reduction (%) 14 Days After Application, KCHSC

Structure (SMILES) | pest or weed control at 140 g/ha [%]
COC(=O)c1nc(-c2ccc(Cl)c(C)c2F)ccc1Cl [F272, Methyl 3-chloro-6-(4-chloro-2-fluoro-3-methylphenyl) picolinate] | 0 to 29
COC(=O)c1nc(-c2ccc(C(F)(F)F)cc2OC)c(F)cc1F [F377, Methyl 3,5-difluoro-6-(2-methoxy-4-(trifluoromethyl)phenyl)picolinate] | 60 to 74

same assay, conditions: post-emergence, 336 h, ORYSA: rice (Oryza sativa), 140 g ai/ha, 14 days after application, read-out: Visual Growth Reduction (%) 14 Days After Application, ORYSA

Structure (SMILES) | pest or weed control at 140 g/ha [%]
COC(=O)c1nc(-c2ccc(Cl)c(C)c2F)ccc1Cl [F272, Methyl 3-chloro-6-(4-chloro-2-fluoro-3-methylphenyl) picolinate] | 0 to 29
COC(=O)c1nc(-c2ccc(C(F)(F)F)cc2OC)c(F)cc1F [F377, Methyl 3,5-difluoro-6-(2-methoxy-4-(trifluoromethyl)phenyl)picolinate] | 0 to 29

same assay, conditions: post-emergence, 336 h, SETFA: giant foxtail (Setaria faberi), 140 g ai/ha, 14 days after application, read-out: Visual Growth Reduction (%) 14 Days After Application, SETFA

Structure (SMILES) | pest or weed control at 140 g/ha [%]
COC(=O)c1nc(-c2ccc(Cl)c(C)c2F)ccc1Cl [F272, Methyl 3-chloro-6-(4-chloro-2-fluoro-3-methylphenyl) picolinate] | 0 to 29
COC(=O)c1nc(-c2ccc(C(F)(F)F)cc2OC)c(F)cc1F [F377, Methyl 3,5-difluoro-6-(2-methoxy-4-(trifluoromethyl)phenyl)picolinate] | 75 to 84

same assay, conditions: post-emergence, 336 h, SORVU: grain sorghum (Sorghum vulgare), 140 g ai/ha, 14 days after application, read-out: Visual Growth Reduction (%) 14 Days After Application, SORVU

Structure (SMILES) | pest or weed control at 140 g/ha [%]
COC(=O)c1nc(-c2ccc(Cl)c(C)c2F)ccc1Cl [F272, Methyl 3-chloro-6-(4-chloro-2-fluoro-3-methylphenyl) picolinate] | 0 to 29
COC(=O)c1nc(-c2ccc(C(F)(F)F)cc2OC)c(F)cc1F [F377, Methyl 3,5-difluoro-6-(2-methoxy-4-(trifluoromethyl)phenyl)picolinate] | 85 to 94

same assay, conditions: post-emergence, 336 h, STEME: common chickweed (Stellaria media), 140 g ai/ha, 14 days after application, read-out: Visual Growth Reduction (%) 14 Days After Application, STEME

Structure (SMILES) | pest or weed control at 140 g/ha [%]
COC(=O)c1nc(-c2ccc(Cl)c(C)c2F)ccc1Cl [F272, Methyl 3-chloro-6-(4-chloro-2-fluoro-3-methylphenyl) picolinate] | 0 to 29
COC(=O)c1nc(-c2ccc(C(F)(F)F)cc2OC)c(F)cc1F [F377, Methyl 3,5-difluoro-6-(2-methoxy-4-(trifluoromethyl)phenyl)picolinate] | 0 to 29

same assay, conditions: post-emergence, 336 h, TRZAS: wheat, spring (Triticum aestivum), 140 g ai/ha, 14 days after application, read-out: Visual Growth Reduction (%) 14 Days After Application, TRZAS

Structure (SMILES) | pest or weed control at 140 g/ha [%]
COC(=O)c1nc(-c2ccc(Cl)c(C)c2F)ccc1Cl [F272, Methyl 3-chloro-6-(4-chloro-2-fluoro-3-methylphenyl) picolinate] | 0 to 29
COC(=O)c1nc(-c2ccc(C(F)(F)F)cc2OC)c(F)cc1F [F377, Methyl 3,5-difluoro-6-(2-methoxy-4-(trifluoromethyl)phenyl)picolinate] | 0 to 29

same assay, conditions: post-emergence, 336 h, blackgrass (Alopecurus myosuroides), 14 Days After Application, 140 g ai/ha, read-out: Visual Growth Reduction (%) ALOMY

Structure (SMILES) | pest or weed control at 140 g/ha [%]
COC(=O)c1nc(-c2ccc(Cl)c(C)c2F)ccc1Cl [F272, Methyl 3-chloro-6-(4-chloro-2-fluoro-3-methylphenyl) picolinate] | 0 to 29
COC(=O)c1nc(-c2ccc(C(F)(F)F)cc2OC)c(F)cc1F [F377, Methyl 3,5-difluoro-6-(2-methoxy-4-(trifluoromethyl)phenyl)picolinate] | 0 to 29

same assay, conditions: post-emergence, 336 h, canada thistle (Cirsium arvense), 14 Days After Application, 140 g ai/ha, read-out: Visual Growth Reduction (%) CIRAR

Structure (SMILES) | pest or weed control at 140 g/ha [%]
COC(=O)c1nc(-c2ccc(Cl)c(C)c2F)ccc1Cl [F272, Methyl 3-chloro-6-(4-chloro-2-fluoro-3-methylphenyl) picolinate] | 0 to 29
COC(=O)c1nc(-c2ccc(C(F)(F)F)cc2OC)c(F)cc1F [F377, Methyl 3,5-difluoro-6-(2-methoxy-4-(trifluoromethyl)phenyl)picolinate] | 75 to 84

same assay, conditions: post-emergence, 336 h, crabgrass (Digitaria sanguinalis), 14 Days After Application, 140 g ai/ha, read-out: Visual Growth Reduction (%) DIGSA

Structure (SMILES) | pest or weed control at 140 g/ha [%]
COC(=O)c1nc(-c2ccc(Cl)c(C)c2F)ccc1Cl [F272, Methyl 3-chloro-6-(4-chloro-2-fluoro-3-methylphenyl) picolinate] | 0 to 29
COC(=O)c1nc(-c2ccc(C(F)(F)F)cc2OC)c(F)cc1F [F377, Methyl 3,5-difluoro-6-(2-methoxy-4-(trifluoromethyl)phenyl)picolinate] | 60 to 74

same assay, conditions: post-emergence, 336 h, lambsquarters (Chenopodium album), 14 Days After Application, 140 g ai/ha, read-out: Visual Growth Reduction (%) CHEAL

Structure (SMILES) | pest or weed control at 140 g/ha [%]
COC(=O)c1nc(-c2ccc(Cl)c(C)c2F)ccc1Cl [F272, Methyl 3-chloro-6-(4-chloro-2-fluoro-3-methylphenyl) picolinate] | 0 to 29
COC(=O)c1nc(-c2ccc(C(F)(F)F)cc2OC)c(F)cc1F [F377, Methyl 3,5-difluoro-6-(2-methoxy-4-(trifluoromethyl)phenyl)picolinate] | 85 to 94

same assay, conditions: post-emergence, 336 h, redroot pigweed (Amaranthus retroflexus), 14 Days After Application, 140 g ai/ha, read-out: Visual Growth Reduction (%) AMARE

Structure (SMILES) | pest or weed control at 140 g/ha [%]
COC(=O)c1nc(-c2ccc(Cl)c(C)c2F)ccc1Cl [F272, Methyl 3-chloro-6-(4-chloro-2-fluoro-3-methylphenyl) picolinate] | 0 to 29
COC(=O)c1nc(-c2ccc(C(F)(F)F)cc2OC)c(F)cc1F [F377, Methyl 3,5-difluoro-6-(2-methoxy-4-(trifluoromethyl)phenyl)picolinate] | 95 to 100

same assay, conditions: post-emergence, 336 h, wild oat (Avena fatua), 14 Days After Application, 140 g ai/ha, read-out: Visual Growth Reduction (%) AVEFA

Structure (SMILES) | pest or weed control at 140 g/ha [%]
COC(=O)c1nc(-c2ccc(Cl)c(C)c2F)ccc1Cl [F272, Methyl 3-chloro-6-(4-chloro-2-fluoro-3-methylphenyl) picolinate] | 0 to 29
COC(=O)c1nc(-c2ccc(C(F)(F)F)cc2OC)c(F)cc1F [F377, Methyl 3,5-difluoro-6-(2-methoxy-4-(trifluoromethyl)phenyl)picolinate] | 30 to 44

same assay, conditions: post-emergence, 336 h, yellow nutsedge (Cyperus esculentus), 14 Days After Application, 140 g ai/ha, read-out: Visual Growth Reduction (%) CYPES

Structure (SMILES) | pest or weed control at 140 g/ha [%]
COC(=O)c1nc(-c2ccc(Cl)c(C)c2F)ccc1Cl [F272, Methyl 3-chloro-6-(4-chloro-2-fluoro-3-methylphenyl) picolinate] | 0 to 29
COC(=O)c1nc(-c2ccc(C(F)(F)F)cc2OC)c(F)cc1F [F377, Methyl 3,5-difluoro-6-(2-methoxy-4-(trifluoromethyl)phenyl)picolinate] | 60 to 74
